Test results: the supplement of paper PMC8671470

Experiments:
Settings in all cases: 72 h
HEL [1] = tested on: HEL
Outline: (§1)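 Fifteen myeloid leukaemia cell lines were seeded in RPMI 1640 at densities titrated to the linear growth range and placed in 384-well plates with acoustically pre-printed compounds at five tenfold doses from 1 to 10,000 nM, in duplicate. After 72 h at 37 °C with 5% CO2, luminescent ATP viability was normalised to vehicle and to a positive control at 10 µM, and curves were fitted with a four-parameter log-logistic model. The IC50 was obtained from these fits.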

NOMO-1 [2] = tested on: NOMO-1
Outline: as §1

MV4-11 [3] = tested on: MV4-11
Outline: as §1

ML-2 [4] = tested on: ML-2
Outline: as §1

SHI-1 [5] = tested on: SHI-1
Outline: as §1

LAMA-84 = tested on: LAMA-84
Outline: as §1

K-562 [6] = tested on: K-562
Outline: as §1

KG-1 [7] = tested on: KG-1
Outline: as §1

KCL-22 [8] = tested on: KCL-22
Outline: as §1

KU-812 [9] = tested on: KU-812
Outline: as §1

MOLM-13 [10] = tested on: MOLM-13
Outline: as §1

Mono-Mac-6 [11] = tested on: Mono-Mac-6
Outline: as §1

THP-1 [12] = tested on: THP-1
Outline: as §1

HL-60 [13] = tested on: HL-60
Outline: as §1

BV-173 [14] = tested on: BV-173
Outline: as §1

HL-60 [15] = test: area under dose-response curve (viability, 1 nM-10 uM) (fraction (0-1)); higher = more sensitive
Outline: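 In 384-well plates, the full library was rescreened in duplicate on HL-60 cells in RPMI 1640 with 10% FBS, at 1–10,000 nM in five tenfold concentrations, for 72 h at 37 °C, 5% CO2. Each run also held DMSO or 100 nM of one of three metabolic inhibitors. Viability was measured by CellTiter-Glo and normalised to DMSO wells and to wells with proteasome inhibitor, present at 10 μM. Any area under the curve comes from four-parameter log-logistic fitting with drc and PharmacoGx.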

HEL [16] = test: cell viability (% survival relative to DMSO control, bortezomib = 0%); higher = less cytotoxic
Outline: (§2)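 Seeding density for each of the 10 AML and 5 CML cell lines was titrated to the linear growth range. Cells went into 384-well plates pre-printed in duplicate with compounds at 1, 10, 100, 1000 or 10000 nM and were held for 72 h at 37 °C with 5% CO2. CellTiter-Glo luminescence then provided the readout. Percent survival is expressed relative to vehicle at 100% and a 10 µM positive control at 0%, averaged over duplicates.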

NOMO-1 [17] = test: as above
Outline: as §2

MV4-11 [18] = test: as above
Outline: as §2

ML-2 [19] = test: as above
Outline: as §2

SHI-1 [20] = test: as above
Outline: as §2

K-562 [21] = test: as above
Outline: as §2

KG-1 [22] = test: as above
Outline: as §2

KCL-22 [23] = test: as above
Outline: as §2

KU-812 [24] = test: as above
Outline: as §2

MOLM-13 [25] = test: as above
Outline: as §2

Mono-Mac-6 [26] = test: as above
Outline: as §2

THP-1 [27] = test: as above
Outline: as §2

HL-60 [28] = test: as above
Outline: as §2

BV-173 [29] = test: as above
Outline: as §2

O=c1cc(-c2ccccc2)oc2cc(O)c(O)c(O)c12 [Baicalein]
Settings | IC50 (cell viability) [µM]
BV-173 [14] | > 10
HEL [1] | > 10
HL-60 [13] | 4.39
K-562 [6] | 9.24
KCL-22 [8] | > 10
KG-1 [7] | 6.35
KU-812 [9] | > 10
LAMA-84 | > 10
ML-2 [4] | 8.18
MOLM-13 [10] | > 10
MV4-11 [3] | > 10
Mono-Mac-6 [11] | > 10
NOMO-1 [2] | > 10
SHI-1 [5] | > 10
THP-1 [12] | > 10

Settings | area under dose-response curve, co-treatment: AZD3965 100 nM | area under dose-response curve, co-treatment: DMSO vehicle | area under dose-response curve, co-treatment: GSK2194069 100 nM | area under dose-response curve, co-treatment: pictilisib 100 nM | cell viability, 1 nM [%] | cell viability, 10 nM [%] | cell viability, 100 nM [%] | cell viability, 1000 nM [%] | cell viability, 10000 nM [%]
BV-173 [29] | – | – | – | – | 100 | 99.5 | 96.2 | 154 | 64.2
HEL [16] | – | – | – | – | 108 | 88.2 | 109 | 137 | 75.4
HL-60 [15] | < 0.0301 | < 0.0301 | < 0.0301 | < 0.0301 | – | – | – | – | –
HL-60 [28] | – | – | – | – | 110 | 86.7 | 114 | 85.3 | 43
K-562 [21] | – | – | – | – | 104 | 104 | 102 | 108 | 45.6
KCL-22 [23] | – | – | – | – | 95 | 70.2 | 113 | 102 | 49.3
KG-1 [22] | – | – | – | – | 96.9 | 96.7 | 112 | 87.8 | 51
KU-812 [24] | – | – | – | – | 93.5 | 94.1 | 99.4 | 108 | 61.4
ML-2 [19] | – | – | – | – | 98.9 | 93.2 | 87.5 | 97.9 | 37.7
MOLM-13 [25] | – | – | – | – | 97.4 | 72 | 132 | 92.1 | 69.3
MV4-11 [18] | – | – | – | – | 97.8 | 102 | 98.7 | 113 | 54
Mono-Mac-6 [26] | – | – | – | – | 103 | 102 | 99.2 | 117 | 75.4
NOMO-1 [17] | – | – | – | – | 99.2 | 91.3 | 104 | 123 | 98.2
SHI-1 [20] | – | – | – | – | 109 | 92 | 126 | 97.2 | 82.8
THP-1 [27] | – | – | – | – | 99.4 | 95.6 | 93.5 | 92.5 | 85.9

C[C@](N)(Cc1ccc(O)cc1)C(=O)O [Metirosine]
Settings | IC50 (cell viability) [µM]
BV-173 [14] | > 10
HEL [1] | > 10
HL-60 [13] | > 10
K-562 [6] | > 10
KCL-22 [8] | > 10
KG-1 [7] | > 10
KU-812 [9] | > 10
LAMA-84 | > 10
ML-2 [4] | > 10
MOLM-13 [10] | > 10
MV4-11 [3] | > 10
Mono-Mac-6 [11] | > 10
NOMO-1 [2] | > 10
SHI-1 [5] | > 10
THP-1 [12] | > 10

Settings | area under dose-response curve, co-treatment: AZD3965 100 nM | area under dose-response curve, co-treatment: DMSO vehicle | area under dose-response curve, co-treatment: GSK2194069 100 nM | area under dose-response curve, co-treatment: pictilisib 100 nM | cell viability, 1 nM [%] | cell viability, 10 nM [%] | cell viability, 100 nM [%] | cell viability, 1000 nM [%] | cell viability, 10000 nM [%]
BV-173 [29] | – | – | – | – | 98.4 | 89.1 | 115 | 86 | 114
HEL [16] | – | – | – | – | 101 | 92.6 | 99.6 | 94.7 | 108
HL-60 [15] | < 0.0301 | < 0.0301 | < 0.0301 | < 0.0301 | – | – | – | – | –
HL-60 [28] | – | – | – | – | 99.2 | 93.7 | 89.7 | 97.6 | 107
K-562 [21] | – | – | – | – | 113 | 90.2 | 101 | 107 | 103
KCL-22 [23] | – | – | – | – | 107 | 95.1 | 96.9 | 91.8 | 99.7
KG-1 [22] | – | – | – | – | 105 | 93.9 | 94.7 | 89.3 | 107
KU-812 [24] | – | – | – | – | 89.4 | 91.1 | 102 | 91.9 | 96.5
ML-2 [19] | – | – | – | – | 91.1 | 96.7 | 107 | 97.9 | 93.5
MOLM-13 [25] | – | – | – | – | 94.4 | 81.5 | 82.9 | 94.6 | 95.7
MV4-11 [18] | – | – | – | – | 107 | 87.3 | 92.3 | 107 | 101
Mono-Mac-6 [26] | – | – | – | – | 99.2 | 101 | 107 | 92.9 | 104
NOMO-1 [17] | – | – | – | – | 95 | 96.6 | 103 | 93.6 | 102
SHI-1 [20] | – | – | – | – | 103 | 105 | 101 | 101 | 91.4
THP-1 [27] | – | – | – | – | 98.3 | 99.5 | 105 | 94.3 | 101
